# System: PfArk2 (PF3D7_0309200) cKD parasites
# Assay: Inhibitor susceptibility assay, PfArk2 conditional knockdown line
# Format: cell-based, Plasmodium falciparum
# Conditions: cKD versus control
# Description: Compound susceptibility assays using P. falciparum Ark1 and Ark2 cKD lines were carried out as previously described^[13]. Ark1 (PF3D7_0605300) and Ark2 (PF3D7_0309200) cKD lines generated by fusing the coding sequence and non-coding RNA aptamer sequences in the 5’- and 3’-UTR, permitting translation regulation using the TetR-DOZI system^[14]. Editing was achieved by CRISPR/SpCas9 using the linear pSN054 vector that contains cloning sites for the left homology region (LHR) and the right homology region (RHR), as well as a gene-specific guide RNA under control of the T7 promoter^[15]. The final constructs were sequence-verified and further confirmed by restriction digests. Transfection into Cas9- and T7 RNA polymerase-expressing NF54 parasites was carried out by pre-loading erythrocytes with the donor vector as previously described^[16]. Parasite culture was maintained continuously in 500 nM anhydrotetracycline (aTc, Sigma-Aldrich 37919) and drug selection with 2.5 μg/mL of Blasticidin S (RPI Corp B12150-0.1) was initiated four days after transfection. Briefly, synchronous ring-stage Ark1 (PF3D7_0605300) and Ark2 (PF3D7_0309200) cKD parasites, as well as a control parasite line expressing an aptamer-regulatable fluorescent protein, were maintained in the presence of high aTc (500 nM) or no aTc and distributed into 384-well polystyrene microplates (Corning). […]
compound,measurement,value
"COc1cc(N2CCC(N3CCN(C)CC3)CC2)ccc1Nc1ncc(Cl)c(Nc2ccccc2S(=O)(=O)C(C)C)n1 [TAE684, NVP-TAE684]",change in IC50 in PfArk2 cKD,no change in the IC50 value
